# From ChEMBL document CHEMBL5506050, “Discovery of Oral AMP-Activated Protein Kinase Activators for Treating Hyperlipidemia” (J Med Chem, 2024)
# Activity calls are given as the source filed them. No cut-off for these calls is given here.
# Experiments:
# [1] = molecular target: AMP-activated protein kinase (AMPK) alpha-1/beta-1/gamma-1 (Homo sapiens) (UniProt P54619+Q9Y478+Q13131); test: Activation of AMPK alpha1/AMPKbeta1/AMPKgamma1 (unknown origin) using SAMS peptide as substrate at; format: protein-complex assay; details: filed as activator, dose < 70.3 µM, time 20.0 min
# Sequence of AMP-activated protein kinase (AMPK) alpha-1/beta-1/gamma-1 (Homo sapiens) (P54619 whole entry, the tested form may be a part): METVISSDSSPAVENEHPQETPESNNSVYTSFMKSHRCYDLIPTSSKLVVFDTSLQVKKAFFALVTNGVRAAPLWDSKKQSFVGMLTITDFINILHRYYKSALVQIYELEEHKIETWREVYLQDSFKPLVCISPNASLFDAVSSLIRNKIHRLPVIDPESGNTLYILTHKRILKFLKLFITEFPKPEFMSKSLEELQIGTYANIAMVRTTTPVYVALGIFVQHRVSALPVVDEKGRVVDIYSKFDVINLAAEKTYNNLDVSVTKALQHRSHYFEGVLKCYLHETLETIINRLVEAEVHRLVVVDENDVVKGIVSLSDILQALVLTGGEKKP
# Sequence of AMP-activated protein kinase (AMPK) alpha-1/beta-1/gamma-1 (Homo sapiens) (Q13131 whole entry partner, the tested form may be a part): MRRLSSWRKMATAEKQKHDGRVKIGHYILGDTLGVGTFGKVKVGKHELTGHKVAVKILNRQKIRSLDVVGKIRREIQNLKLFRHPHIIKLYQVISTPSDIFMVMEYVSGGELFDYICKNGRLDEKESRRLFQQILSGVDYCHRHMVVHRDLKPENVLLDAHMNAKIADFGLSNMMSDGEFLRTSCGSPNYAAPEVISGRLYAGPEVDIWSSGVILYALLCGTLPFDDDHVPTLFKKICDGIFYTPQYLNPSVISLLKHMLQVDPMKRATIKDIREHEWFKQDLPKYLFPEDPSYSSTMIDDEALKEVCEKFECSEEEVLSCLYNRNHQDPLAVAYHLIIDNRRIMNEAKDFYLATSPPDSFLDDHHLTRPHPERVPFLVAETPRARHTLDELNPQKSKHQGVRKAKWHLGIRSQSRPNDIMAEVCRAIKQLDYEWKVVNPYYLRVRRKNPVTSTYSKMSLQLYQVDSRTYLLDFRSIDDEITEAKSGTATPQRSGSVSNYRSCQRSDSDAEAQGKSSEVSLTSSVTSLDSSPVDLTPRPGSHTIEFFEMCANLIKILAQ
# Sequence of AMP-activated protein kinase (AMPK) alpha-1/beta-1/gamma-1 (Homo sapiens) (Q9Y478 2-270 partner limits assumed): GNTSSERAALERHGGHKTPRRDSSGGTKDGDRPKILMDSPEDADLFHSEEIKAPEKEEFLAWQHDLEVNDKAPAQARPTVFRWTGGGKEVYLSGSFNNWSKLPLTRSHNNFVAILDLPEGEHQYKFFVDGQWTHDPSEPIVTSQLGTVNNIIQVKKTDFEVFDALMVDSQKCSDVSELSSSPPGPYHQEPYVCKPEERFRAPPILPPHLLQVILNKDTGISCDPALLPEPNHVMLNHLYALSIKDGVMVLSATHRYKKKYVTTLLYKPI
# [2] = molecular target: AMP-activated protein kinase, AMPK; test: Binding affinity to truncated AMPK (unknown origin) assessed as dissociation constant by CD analysis; format: protein-complex assay, Homo sapiens
# Syrian golden hamster [3] = test: Lipid lowering effect on high-fat diet-fed golden hamster assessed as decrease in serum LDL-C level at 6 mg/kg, po qd administered via gavage measured after 4 weeks relative to control; format: functional, Mesocricetus auratus; set-up: scale not given: the % may be the effect or the level left
# Syrian golden hamster [4] = test: Lipid lowering effect on high-fat diet-fed golden hamster assessed as decrease in serum TG level administered orally once daily via gavage measured after 4 weeks measured after 4 weeks; format: functional, organism-based; details: Mesocricetus auratus, dose 50-200 mg/kg, route po
# Syrian golden hamster [5] = test: Lipid lowering effect on high-fat diet-fed golden hamster assessed as decrease in ALT level in liver at 50 to 200 mg/kg, po qd administered via gavage measured after 4 weeks; format: functional, organism-based; details: Mesocricetus auratus, dose 50-200 mg/kg
# Syrian golden hamster [6] = test: Effect on liver weight in high-fat diet-fed golden hamster at 50 to 200 mg/kg, po qd administered via gavage measured after 4 weeks; format: functional, organism-based; details: Mesocricetus auratus, dose 50-200 mg/kg
# Homo sapiens [7] = species: Homo sapiens; test: Downregulation of serum LDL-C level in human at 2000 mg bid for 7 days; format: functional; details: time 7.0 day
# Homo sapiens [8] = species: Homo sapiens; test: Downregulation of serum TC level in human at 2000 mg bid for 7 days; format: functional; details: time 7.0 day
# Mus musculus [9] = test: Downregulation of Mogat1 mRNA level in liver of high-fat diet-fed C57BL/6 mouse model at 200 mg/kg, po for 4 weeks by GO analysis; format: functional, organism-based
# Mus musculus [10] = test: Downregulation of Pparg mRNA level in liver of high-fat diet-fed C57BL/6 mouse model at 200 mg/kg, po for 4 weeks by GO analysis; format: functional, organism-based
# Mus musculus [11] = test: Downregulation of Mvd mRNA level in liver of high-fat diet-fed C57BL/6 mouse model at 200 mg/kg, po for 4 weeks by GO analysis; format: functional, organism-based
# Mus musculus [12] = test: Downregulation of Cidea mRNA level in liver of high-fat diet-fed C57BL/6 mouse model at 200 mg/kg, po for 4 weeks by GO analysis; format: functional, organism-based
# Mus musculus [13] = test: Upregulation of Lepr mRNA level in liver of high-fat diet-fed C57BL/6 mouse model at 200 mg/kg, po for 4 weeks by GO analysis; format: functional, organism-based
# Mus musculus [14] = test: Downregulation of Sdf2l1 mRNA level in liver of high-fat diet-fed C57BL/6 mouse model at 200 mg/kg, po for 4 weeks by GO analysis; format: functional, organism-based
# Mus musculus [15] = test: Upregulation of Gadd45a mRNA level in liver of high-fat diet-fed C57BL/6 mouse model at 200 mg/kg, po for 4 weeks by GO analysis; format: functional, organism-based
# Mus musculus [16] = test: Effect on Hspa5 mRNA level in liver of diet-induced obese C57BL/6 mouse model harboring AMPKalpha LS-/- at 200 mg/kg, po for 4 weeks by GO analysis; format: functional, organism-based
# Mus musculus [17] = test: Effect on Ccl2 mRNA level in liver of diet-induced obese C57BL/6 mouse model harboring AMPKalpha LS-/- at 200 mg/kg, po for 4 weeks by GO analysis; format: functional, organism-based
# Mus musculus [18] = test: Effect on Aacas mRNA level in liver of diet-induced obese C57BL/6 mouse model harboring AMPKalpha LS-/- at 200 mg/kg, po for 4 weeks by GO analysis; format: functional, organism-based
# Mus musculus [19] = test: Effect on Gadd45a mRNA level in liver of diet-induced obese C57BL/6 mouse model harboring AMPKalpha LS-/- at 200 mg/kg, po for 4 weeks by GO analysis; format: functional, organism-based
# [20] = Oral bioavailability in female Rhesus monkey at 70 mg/kg measured for 36 hrs by LC-tandem MS analysis; format: ADME, organism-based, Macaca mulatta; details: in vivo
# [21] = Cmax in male Rhesus monkey at 70 mg/kg, po or 7 mg/kg, iv measured for 36 hrs by LC-tandem MS analysis; format: ADME, organism-based, Macaca mulatta; details: in vivo
# [22] = Apparent permeability across apical to basal side in human Caco-2 cells at 2 uM incubated for 2 hrs by LC-MS/MS analysis; format: ADME, cell-based
# [23] = Efflux ratio of apparent permeability across basal to apical side over apical to basal side in human Caco-2 cells at 2 uM incubated for 2 hrs by LC-MS/MS analysis; format: ADME, cell-based
# [24] = Stability in human Caco-2 cells assessed as compound remaining at 10 ug/ml measured after 2 hrs by LC-MS/MS analysis; format: ADME, cell-based; details: at 10 µg/mL, read-out: Stability
# [25] = Stability in human liver microsomes assessed as […] at 1 uM measured for 60 mins in presence of NADPH by LC-MS/MS analysis; format: ADME, Microsome; details: read-out: QH
# [26] = Acute toxicity in golden hamster administered orally measured for 14 days; set-up: species or system Mesocricetus auratus; details: in vivo, route po, time 14 day
structure (smiles),measurement,setting,value
CC(=O)OC[C@H]1O[C@@H](n2cnc3c(Nc4cccc(O)c4)ncnc32)[C@H](OC(C)=O)[C@@H]1OC(C)=O,Activity,[1],Active
same,Kd,[2],210 nM
same,Activity,Syrian golden hamster [3],27.5%
same,Activity,Syrian golden hamster [4],Dose-Dependent Effect
same,Activity,Syrian golden hamster [5],Active
same,Activity,Syrian golden hamster [6],inactive
same,Activity,Homo sapiens [7],Active
same,Activity,Homo sapiens [8],Active
same,Activity,Mus musculus [9],Active
same,Activity,Mus musculus [10],Active
same,Activity,Mus musculus [11],Active
same,Activity,Mus musculus [12],Active
same,Activity,Mus musculus [13],Active
same,Activity,Mus musculus [14],Active
same,Activity,Mus musculus [15],Active
same,Activity,Mus musculus [16],inactive
same,Activity,Mus musculus [17],inactive
same,Activity,Mus musculus [18],inactive
same,Activity,Mus musculus [19],inactive
same,bioavailability,[20],3.75%
same,Cmax,[21],20.4 ng/mL
same,"Papp A→B at 2 h, 2 µM",[22],8.6 ×10⁻⁶ cm/s
same,"efflux ratio at 2 h, 2 µM",[23],2.1
same,"remaining at 2 h, 10 ug/ml",[24],63%
same,"hepatic extraction ratio at 1 h, 1 µM",[25],> 0.7
same,LD50 at 336 h,[26],> 20000 mg/kg
